What all share (experiment): cells
Assay [1] deals with MDA-MB-231. Format: functional, cell-based. The following applies: Homo sapiens, MDA-MB-231, 72 h.
Description: Antiproliferative activity against human MDA-MB-231 cells assessed as cell viability after 72 hrs by MTT assay
Assay [2] deals with MDA-MB-468. The assay is classed as functional, cell-based. The following applies: Homo sapiens, MDA-MB-468, 72 h.
Description: Antiproliferative activity against human MDA-MB-468 cells assessed as cell viability after 72 hrs by MTT assay
Assay [3] has as its system MCF7. The assay is classed as functional, cell-based. Particulars: Homo sapiens, MCF7, 72 h.
Description: Antiproliferative activity against human MCF7 cells assessed as cell viability after 72 hrs by MTT assay
The subject of assay [4] is MCF-10A. Format: ADME, cell-based. The following applies: Homo sapiens, 72 h.
Description: Antiproliferative activity against human MCF-10A cells assessed as cell viability after 72 hrs by MTT assay

Consider 13 molecules from ChEMBL document CHEMBL4831520, “Discovery of First-in-Class Dual PARP and EZH2 Inhibitors for Triple-Negative Breast Cancer with Wild-Type BRCA” (J Med Chem, 2021).

Bounds are passed on as bounds.

Consider `COC1CCN(C(=O)c2cc(Cc3n[nH]c(=O)c4ccccc34)ccc2F)CC1` [AZD2461], for which the IC50 is 36.9 µM in assay [1], 35.6 µM in assay [2], > 50 µM in assay [3] and > 50 µM in assay [4].

`CCN(c1cc(-c2ccc(N3CCN(C(=O)c4cc(Cc5n[nH]c(=O)c6ccccc56)ccc4F)CC3)nc2)cc(C(=O)NCc2c(C)cc(C)[nH]c2=O)c1C)C1CCOCC1`: the IC50 in assay [1], in assay [2], in assay [3] and in assay [4] was > 50 µM each time.

As for `CCn1ccc2c(C(=O)NCc3c(C)cc(C)[nH]c3=O)cc(-c3ccc(N4CCN(C(=O)c5cc(Cc6n[nH]c(=O)c7ccccc67)ccc5F)CC4)nc3)cc21`, the IC50 in assay [1], in assay [2], in assay [3] and in assay [4] was > 50 µM in each case.

Turning to `C=C(C)C(=O)Nc1cc(-c2ccc(N3CCN(C(=O)c4cc(Cc5n[nH]c(=O)c6ccccc56)ccc4F)CC3)nc2)cc(C(=O)NCc2c(C)cc(C)[nH]c2=O)c1C`, the half-inhibitory concentration (IC50) is 17.9 µM in assay [1], 2.21 µM in assay [2], 30.1 µM in assay [3] and > 50 µM in assay [4].

Regarding `Cc1cc(C)c(CNC(=O)c2cc(-c3ccc(N4CCN(C(=O)c5cc(Cc6n[nH]c(=O)c7ccccc67)ccc5F)CC4)nc3)cc([N+](=O)[O-])c2)c(=O)[nH]1`, the IC50 in assay [1], in assay [2], in assay [3] and in assay [4] was > 50 µM each time.

As to `Cc1cc(C)c(CNC(=O)c2cc(-c3ccc(N4CCN(C(=O)c5cc(Cc6n[nH]c(=O)c7ccccc67)ccc5F)CC4)nc3)cc3c2cnn3C)c(=O)[nH]1`, the IC50 in assay [1], in assay [2], in assay [3] and in assay [4] was > 50 µM each time.

Regarding `CCN(C(C)=O)c1cc(-c2ccc(N3CCN(C(=O)c4cc(Cc5n[nH]c(=O)c6ccccc56)ccc4F)CC3)nc2)cc(C(=O)NCc2c(C)cc(C)[nH]c2=O)c1C`, the IC50 is 18.4 µM in assay [1], 9.56 µM in assay [2], 26.2 µM in assay [3] and > 50 µM in assay [4].

Consider `Cc1cc(C(=O)NCc2c(C)cc(C)[nH]c2=O)cc(-c2ccc(N3CCN(C(=O)c4cc(Cc5n[nH]c(=O)c6ccccc56)ccc4F)CC3)nc2)c1`, for which the IC50 in assay [1] was > 50 µM; in assay [2] it was 32.5 µM; in assay [3], > 50 µM; in assay [4] it was > 50 µM.

With `CCCC(=O)Nc1cc(-c2ccc(N3CCN(C(=O)c4cc(Cc5n[nH]c(=O)c6ccccc56)ccc4F)CC3)nc2)cc(C(=O)NCc2c(C)cc(C)[nH]c2=O)c1C`, the IC50 in assay [1] is 26.1 µM; in assay [2], 3.89 µM; in assay [3] it was 33.2 µM; in assay [4] it was > 50 µM.

For the molecule `Cc1cc(C)c(CNC(=O)c2cc(-c3ccc(N4CCN(C(=O)c5cc(Cc6n[nH]c(=O)c7ccccc67)ccc5F)CC4)nc3)cc3c2ccn3C(C)C)c(=O)[nH]1`, the IC50 in assay [1] is 33.5 µM; in assay [2] it was 21.6 µM; in assay [3], 47.5 µM; in assay [4] it was > 50 µM.

As for `Cc1cc(C)c(CNC(=O)c2cc(-c3ccc(N4CCN(C(=O)c5cc(Cc6n[nH]c(=O)c7ccccc67)ccc5F)CC4)nc3)cc([N+](=O)[O-])c2C)c(=O)[nH]1`, the IC50 in assay [1], in assay [2], in assay [3] and in assay [4] was > 50 µM each time.

With `Cc1cc(C)c(CNC(=O)c2ccc(C)c(-c3ccc(N4CCN(C(=O)c5cc(Cc6n[nH]c(=O)c7ccccc67)ccc5F)CC4)nc3)c2)c(=O)[nH]1`, the IC50 in assay [1] is > 50 µM; in assay [2] it was 28.8 µM; in assay [3] it was > 50 µM; in assay [4] it was > 50 µM.

With `Cc1cc(C)c(CNC(=O)c2cc(-c3ccc(N4CCN(C(=O)c5cc(Cc6n[nH]c(=O)c7ccccc67)ccc5F)CC4)nc3)ccc2C)c(=O)[nH]1`, the IC50 in assay [1] was 30.2 µM; in assay [2], 28.3 µM; in assay [3], > 50 µM; in assay [4] it was > 50 µM.

As usually defined, the IC50 is the concentration at which inhibition is half-maximal. A high value points to weaker potency.
